According to US20200069592A1, “HSP90 INHIBITOR ORAL FORMULATIONS AND RELATED METHODS” (Samus Therapeutics, Inc., priority 2017, published 2020):

Columns and labels:
[1] = Plasma pharmacokinetics after single oral dose in ORA-Plus or SyrSpend SF (Example 6), LC-MS/MS; format: in vivo, Sprague Dawley rats; conditions: for AUC % Extrap / Cl_F / Vz_F / AUC(0-inf) / AUC(0-t) / Cmax / Tmax / half-life: rat plasma; for % AUC0-last test vs reference: rats, ratio of group averages; for AUC(0-inf) / AUC(0-t) / Cmax / Tmax / half-life: female, rat, plasma, po
[2] = Tolerability (body weight, toxicity, maximum tolerated dose) in the Example 5 rat study; format: in vivo; conditions: free base
Method: Ninety-four total animals were observed thereafter. The parenteral administration is performed by tail vein injection.

[3] = Plasma pharmacokinetics after single PO or IV administration (Example 5), LC-MS/MS; conditions: for Tmax / AUC(0-t) / Cmax: female, rat, plasma, free base; for Tmax: Tmax (hr) Mean ± StdDev; for AUC(0-t): AUC0-last (hr*ng/mL) Mean ± StdDev; for Cmax: Cmax (ng/mL) Mean ± StdDev
Method: The animals used in this study were female Sprague Dawley Rats physiologically normal. At the time of receipt, mice were 200-225 g in weight. […] Ninety-four total animals were observed thereafter. The parenteral administration is performed by tail vein injection.
Compound 2 was provided in free base form and stored at −20° C., protected from light. Compound 2 was formulated in dosage form immediately prior to use. For oral administration of Compound 2 in ORA-Plus® drinking solution, Compound 2 was suspended in drinking solution ORA-Plus® (Perrigo; Minneapolis, Minn.). First, a mortar and pestle were used to smooth out the Compound 2 powder, then a small amount of ORA-Plus® was added, and next, the mixture was triturated to a thick, smooth paste. The remainder of the ORA-Plus® was added by geometric dilution. The Compound 2 free base and ORA-Plus® mixture was dispensed in a tight, light resistant amber bottle with appropriate labeling. This mixture was shaken well before using, protected from light and kept refrigerated if dosing was delayed. For oral administration of Compound 2 in citric acid buffer with Captisol®, Compound 2 free base powder was dissolved or suspended into 30% Captisol® (Cydex Pharmaceuticals; Lawrence, Kans.) in 60 mM citrate buffer (pH˜4.2) (citric acid and sodium citrate dehydrate (Sigma-Aldrich; St. Louis Mo.)) in sterile water) to each group's working concentration. […] A magnetic stir-bar was used to mix dosing solution, followed by sonication. For intravenous administration, Compound 2 free base powder was dissolved into 15% Captisol® in 5 mM citrate buffer (pH˜4.2) to each group's working concentration. A magnetic stirbar was used to mix dosing solution, followed by sonication. IV dosing solution of Compound 2 free base was filtered with a 0.2 m PVDF filter (Pall Life Sciences; Port Washington, N.Y.) prior to administration.
Dose levels of Compound 1 were based on the free base, not the salt.
Animals were randomized using random equilibration of body weights on Day 1 into one of 19 study groups, as shown in Table 23 (Groups 1-19), with 5 animals in each group, except for the 4 animals in Group 19. Body weights were collected Days 1, 2, 3, and/or 4 to accommodate data collection of staggered groups. Gross observations of body weight were noted during the course of the study.

[4] = G1: free base, 24 mg/kg single oral dose, ORA-plus
[5] = G2: free base, 48 mg/kg single oral dose, ORA-plus, n = 4
[6] = G7: free base, 24 mg/kg single oral dose, SyrSpend, n = 4
[7] = G8: free base, 48 mg/kg single oral dose, SyrSpend
[8] = Sprague Dawley, 24 mg/kg, G1: free base, 24 mg/kg single oral dose, ORA-plus
[9] = Sprague Dawley, 48 mg/kg, G2: free base, 48 mg/kg single oral dose, ORA-plus
[10] = Sprague Dawley, 48 mg/kg, G2: free base, 48 mg/kg single oral dose, ORA-plus, n = 4
[11] = Sprague-Dawley, 24 mg/kg, G7: free base, 24 mg/kg single oral dose, SyrSpend
[12] = Sprague-Dawley, 24 mg/kg, G7: free base, 24 mg/kg single oral dose, SyrSpend, n = 4
[13] = Sprague-Dawley, 48 mg/kg, G8: free base, 48 mg/kg single oral dose, SyrSpend
[14] = 24 mg/kg PO, Group 1 (ORA-plus) relative to Group 5 (citrate buffer-Captisol)
[15] = 36 mg/kg PO, Group 2 (ORA-plus) relative to Group 6 (citrate buffer-Captisol)
[16] = 48 mg/kg PO, Group 3 (ORA-plus) relative to Group 7 (citrate buffer-Captisol)
[17] = 60 mg/kg PO, Group 4 (ORA-plus) relative to Group 8 (citrate buffer-Captisol)
[18] = Sprague Dawley, po, 24 mg/kg, Group 5: 24 mg/kg PO, 60 mM Citric acid buffer + 30% Captisol
[19] = Sprague Dawley, po, 36 mg/kg, Group 2: 36 mg/kg PO, ORA-Plus
[20] = Sprague Dawley, po, 36 mg/kg, Group 6: 36 mg/kg PO, 60 mM Citric acid buffer + 30% Captisol
[21] = Sprague Dawley, po, 48 mg/kg, Group 3: 48 mg/kg PO, ORA-Plus
[22] = Sprague Dawley, po, 48 mg/kg, Group 7: 48 mg/kg PO, 60 mM Citric acid buffer + 30% Captisol
[23] = Sprague Dawley, po, 60 mg/kg, Group 4: 60 mg/kg PO, ORA-Plus
[24] = Sprague Dawley, po, 60 mg/kg, Group 8: 60 mg/kg PO, 60 mM Citric acid buffer + 30% Captisol
[25] = Sprague-Dawley, iv, 12 mg/kg, Group 9: 12 mg/kg IV, 5 mM Citric acid buffer + 15% Captisol
[26] = Sprague-Dawley, iv, 24 mg/kg, Group 10: 24 mg/kg IV, 5 mM Citric acid buffer + 15% Captisol
[27] = Sprague-Dawley, po, 24 mg/kg, Group 1: 24 mg/kg PO, ORA-Plus, single dose

CC(C)(C)CNCCn1c(Sc2cc3c(cc2I)OCO3)nc2c(N)ncnc21 [Compound 2]
AUC % Extrap [1, 4]: 2.77 ± 0.30%
Cl_F [1, 4]: 249.8 ± 24.2 mL/min/kg
Vz_F [1, 4]: 50.18 ± 39.85 L/kg
AUC % Extrap [1, 5]: 6.22 ± 6.79 %
Cl_F [1, 5]: 177.2 ± 65.5 mL/min/kg
Vz_F [1, 5]: 38.84 ± 10.64 L/kg
AUC % Extrap [1, 6]: 6.89 ± 3.49 %
Cl_F [1, 6]: 369.7 ± 105 mL/min/kg
Vz_F [1, 6]: 88.96 ± 44.19 L/kg
AUC % Extrap [1, 7]: 1.71 ± 1.37%
Cl_F [1, 7]: 136 ± 105 mL/min/kg
Vz_F [1, 7]: 44.20 ± 37.62 L/kg
% AUC0-last test vs reference ([1]; Group 1 (24 mg/kg FB ORA-plus) vs Group 3 (24 mg/kg 2HCl ORA-plus)): 121.69%
% AUC0-last test vs reference ([1]; Group 1 (24 mg/kg FB ORA-plus) vs Group 4 (48 mg/kg 2HCl ORA-plus)): 24.79%
% AUC0-last test vs reference ([1]; Group 1 (24 mg/kg FB ORA-plus) vs Group 7 (24 mg/kg FB SyrSpend)): 123.40%
% AUC0-last test vs reference ([1]; Group 1 (24 mg/kg FB ORA-plus) vs Group 9 (24 mg/kg 2HCl SyrSpend)): 133.31%
% AUC0-last test vs reference ([1]; Group 2 (48 mg/kg FB ORA-plus) vs Group 4 (48 mg/kg 2HCl ORA-plus)): 70.46%
% AUC0-last test vs reference ([1]; Group 2 (48 mg/kg FB ORA-plus) vs Group 8 (48 mg/kg FB SyrSpend)): 54.72%
% AUC0-last test vs reference ([1]; Group 2 (48 mg/kg FB ORA-plus) vs Group 10 (48 mg/kg 2HCl SyrSpend)): 51.93%
% AUC0-last test vs reference ([1]; Group 7 (24 mg/kg FB SyrSpend) vs Group 9 (24 mg/kg 2HCl SyrSpend)): 108.03%
% AUC0-last test vs reference ([1]; Group 8 (48 mg/kg FB SyrSpend) vs Group 10 (48 mg/kg 2HCl SyrSpend)): 94.91%
AUC(0-inf) [1, 8]: 1610 ± 156 ng·h/mL
AUC(0-t) [1, 8]: 1570 ± 152 ng·h/mL
Cmax [1, 8]: 579 ± 108 ng/mL
Tmax [1, 8]: 1.4 ± 0.55 h
half-life [1, 8]: 2.36 ± 1.98 h
AUC(0-t) [1, 9]: 4460 ± 2110 ng·h/mL
Cmax [1, 9]: 803 ± 278 ng/mL
Tmax [1, 9]: 2.8 ± 1.64 h
AUC(0-inf) [1, 10]: 5060 ± 2070 ng·h/mL
half-life [1, 10]: 2.61 ± 0.44 h
AUC(0-t) [1, 11]: 1270 ± 524 ng·h/mL
Cmax [1, 11]: 371 ± 196 ng/mL
Tmax [1, 11]: 1 h
AUC(0-inf) [1, 12]: 1180 ± 451 ng·h/mL
half-life [1, 12]: 2.78 ± 1.13 h
AUC(0-inf) [1, 13]: 8080 ± 4090 ng·h/mL
AUC(0-t) [1, 13]: 8140 ± 3550 ng·h/mL
Cmax [1, 13]: 1030 ± 421 ng/mL
Tmax [1, 13]: 3.4 ± 1.95 h
half-life [1, 13]: 3.56 ± 1.03 h
Time point up to which all animals had quantifiable plasma levels ([1]; single oral dose, free base or 2HCl, ORA-Plus or SyrSpend): ≥ 8 h
MTD ([2]; female, Sprague Dawley, rat, in vivo, iv, intravenously administered, rats, read-out: Maximum tolerated dose): 24 mg/kg
Body weight and toxicity ([2]; higher oral doses (above 24 mg/kg), data not shown): minimal effects on body weight and limited toxicity
% AUC0-last (hr*ng/mL) ORA vs Citrate Mean ± StdDev [3, 14]: 48.63 ± 15.03%
% Cmax (ng/mL) ORA vs Citrate Mean ± StdDev [3, 14]: 47.65 ± 16.52%
% AUC0-last (hr*ng/mL) ORA vs Citrate Mean ± StdDev [3, 15]: 91.18 +/− 72.46%
% Cmax (ng/mL) ORA vs Citrate Mean ± StdDev [3, 15]: 89.97 +/− 82.63%
% AUC0-last (hr*ng/mL) ORA vs Citrate Mean ± StdDev [3, 16]: 94.75 +/− 64.83%
% Cmax (ng/mL) ORA vs Citrate Mean ± StdDev [3, 16]: 99.04 +/− 80.01%
% AUC0-last (hr*ng/mL) ORA vs Citrate Mean ± StdDev [3, 17]: 75.93 +/− 63.12%
% Cmax (ng/mL) ORA vs Citrate Mean ± StdDev [3, 17]: 83.99 +/− 73.13%
Tmax ([3]; Sprague Dawley, iv, 12 mg/kg, Group 9: 12 mg/kg IV, 5 mM Citric acid buffer + 15% Captisol): 0.25 h
AUC(0-t) [3, 18]: 2010 ± 176 ng·h/mL
Cmax [3, 18]: 685 ± 109 ng/mL
Tmax [3, 18]: 1.8 ± 0.45 h
AUC(0-t) [3, 19]: 2680 ± 811 ng·h/mL
AUC(0-t) [3, 20]: 2940 ± 1570 ng·h/mL
Cmax [3, 19]: 747 ± 238 ng/mL
Cmax [3, 20]: 831 ± 618 ng/mL
Tmax [3, 19]: 1.5 ± 1.41 h
Tmax [3, 20]: 2.4 ± 2.07 h
AUC(0-t) [3, 21]: 5220 ± 2760 ng·h/mL
AUC(0-t) [3, 22]: 5510 ± 2590 ng·h/mL
Cmax [3, 21]: 1240 ± 519 ng/mL
Cmax [3, 22]: 1400 ± 626 ng/mL
Tmax [3, 21]: 2.7 ± 1.79 h
Tmax [3, 22]: 1.4 ± 0.55 h
AUC(0-t) [3, 23]: 3560 ± 906 ng·h/mL
AUC(0-t) [3, 24]: 4750 ± 3070 ng·h/mL
Cmax [3, 23]: 909 ± 302 ng/mL
Cmax [3, 24]: 1080 ± 584 ng/mL
Tmax [3, 23]: 3 ± 2.74 h
Tmax [3, 24]: 4.4 ± 1.67 h
AUC(0-t) [3, 25]: 3390 ± 402 ng·h/mL
Cmax [3, 25]: 2360 ± 92.7 ng/mL
AUC(0-t) [3, 26]: 7500 ± 552 ng·h/mL
Cmax [3, 26]: 5110 ± 416 ng/mL
Tmax [3, 26]: 0.25 h
AUC(0-t) [3, 27]: 975 ± 304 ng·h/mL
Cmax [3, 27]: 321 ± 111 ng/mL
Tmax [3, 27]: 0.9 ± 0.22 h
